Experiments:
[1] = test system: MCF10A cells; test: Mesenchymal phenotype in 2D growth and invasive growth in 3D Matrigel of transduced MCF10A cells treated with Akt inhibitors; format: cell-based, human; conditions: inhibitor 10 μM, 12 hours
Experimental: (§1) MCF10A cells were cultured and transduced with retroviral constructs expressing myrAkt1, MyrAkt3 or Slug as described in FIGS. 1 and 3. The cells were treated with Akt inhibitors LY294002 (10 μM, Cell Signaling Technology, Cat. #9901) and Akt VIII (10 μM, Merck, Cat. #124018) for 12 hours as indicated. Cells were then either visualized at indicated magnification by phase-contrast microscopy, or seeded for invasive growth in 3D Matrigel as described in Example 3.

[2] = test system: Akt; test: Immunoblot of Akt activation (pAkt) in transduced MCF10A cells treated with Akt inhibitor; format: cell-based, human; conditions: inhibitor 10 μM, 12 hours
Experimental: as §1
(§2) MCF10A cells were cultured and transduced with retroviral constructs expressing myrAkt1, MyrAkt3 or Slug as described in FIGS. 1 and 3. The cells were treated with Akt inhibitor as described in FIG. 6. SDS/PAGE, immunoblotting and antibodies as described in Examples 1 and 4.

[3] = test system: MCF10A cells; test: Immunoblot of EMT markers (N-cadherin, vimentin, E-cadherin) in transduced MCF10A cells treated with Akt inhibitor; format: cell-based, human; conditions: inhibitor 10 μM, 12 hours
Experimental: as §1, §2

[4] = test system: Akt3; test: Quantification of nuclear Akt3 immunofluorescence in mammary epithelial cells (HMEC); format: cell-based, human; conditions: 600 nM BGB324 (Axl TKI), 1 uM imatinib (cKit TKI), versus vehicle (DMSO), *P<0.05
Text: Culturing of MDA-MB-231 cells was as described in Example 3. Primary human mammary epithelial cells (HMEC) were isolated as described (Garbe J C, Pepin F, Pelissier F A, Sputova K, Fridriksdottir A J, Guo D E, Villadsen R, Park M, Petersen O W, Borowsky A D, Stampfer M R, Labarge M A. Accumulation of multipotent progenitors with a basal differentiation bias during aging of human mammary epithelia. Cancer Res. 2012 Jul. 15; 72(14):3687-701) Localization of Akt3 (anti-Akt3-FITC, top panels) in MDA-MB-231 and primary human mammary epithelial cells (HMEC) as in Example 17. Nucleus was stained by DAPI (lower panels). Bar: 50 micron

[5] = test system: Akt3; test: SureFire assay detecting activated (phosphorylated) Akt3 in cells; format: cell-based; conditions: 10 nM insulin for 10 minutes
Experimental: A SureFire assay was used to specifically detect activated (phosphorylated) Akt3 in WM115, MCF7 and LNCaP cells. Briefly cells were lysated, and antibodies recognizing phosphorylated Akt (p473) and Akt3 were coupled to acceptor and donor beads as described by the manufacturer (PerkinElmer). Cells were either unstimulated or stimulated with 10 nM insulin for 10 minutes to activate Akt.

O=c1[nH]c2ccccc2n1C1CCN(Cc2ccc(-c3nc4cc5nc[nH]c5cc4nc3-c3ccccc3)cc2)CC1 [AKT VIII]
mesenchymal phenotype induced by Akt3 ([1]; MCF10A cells expressing MyrAkt3): inhibit
mesenchymal/invasive phenotype induced by Slug in 2D and 3D growth ([1]; MCF10A cells expressing Slug, 2D culture and 3D Matrigel): inhibit
Akt activation (pAkt) [2]: fully inhibit
mesenchymal marker N-cadherin expression [3]: significant reduction
mesenchymal marker vimentin expression [3]: significant reduction
re-expression of the epithelial marker E-cadherin [3]: Neither inhibitor led to re-expression
reversal of the mesenchymal phenotype / inhibition of EMT [3]: partially reverse

Nc1nc(Nc2ccc3c(c2)CC[C@@H](N2CCCC2)CC3)nn1-c1cc2c(nn1)-c1ccccc1CCC2 [BGB324, 1-(6,7-dihydro-5H-benzo[6,7]cyclohepta[1,2-c]pyridazin-3-yl)-N3-((7-(S)-pyrrolidin-1-yl)-6,7,8,9-tetrahydro-5H-benzo[7]annulene-2-yl)-1H-1,2,4-triazole-3,5-diamine]
Akt3 nuclear localization [4]: inhibit

insulin: stimulus used to activate Akt in the SureFire assay
Akt3 activity (phosphorylation) signal ([5]; LNCaP prostate cells): no signal
Akt3 activity (phosphorylation) signal ([5]; MCF7 breast epithelial cells): no signal
Akt3 activity (phosphorylation) ([5]; WM115 melanoma cells): significantly induce
